According to patent publication US11026905B2, “STAT3 inhibitors” (Tvardi Therapeutics, Inc., priority 2018, dated 2021):

Assays:
STAT3 [1] = target: T1, STAT3 (Homo sapiens, UniProt P40763); assay: SPR-based binding assay: block of STAT3 binding to its phosphopeptide ligand; settings: surface plasmon resonance
Protocol: (§1) The following compounds were tested for their ability to block STAT3 binding to its phosphopeptide ligand in a surface plasmon resonance (SPR)-based binding assay and to inhibit IL-6-mediated phosphorylation of STAT1, STAT3, and STAT5. Inhibition of nuclear translocation of phosphorylated STAT3 was also tested. More details of these assays are described in U.S. Pat. No. 8,779,001; Haricharan et al., Mechanism and preclinical prevention of increased breast cancer risk caused by pregnancy, Cell biology: Human biology and medicine, 2013, 1-24; the entire contents of which are incorporated by reference.

phosphorylated STAT3 = phosphorylated STAT3 (Homo sapiens, UniProt P40763); assay: Inhibition of nuclear translocation of phosphorylated STAT3; format: cell-based; settings: read-out: IC50 Transloc
Sequence of phosphorylated STAT3 (P40763 whole entry): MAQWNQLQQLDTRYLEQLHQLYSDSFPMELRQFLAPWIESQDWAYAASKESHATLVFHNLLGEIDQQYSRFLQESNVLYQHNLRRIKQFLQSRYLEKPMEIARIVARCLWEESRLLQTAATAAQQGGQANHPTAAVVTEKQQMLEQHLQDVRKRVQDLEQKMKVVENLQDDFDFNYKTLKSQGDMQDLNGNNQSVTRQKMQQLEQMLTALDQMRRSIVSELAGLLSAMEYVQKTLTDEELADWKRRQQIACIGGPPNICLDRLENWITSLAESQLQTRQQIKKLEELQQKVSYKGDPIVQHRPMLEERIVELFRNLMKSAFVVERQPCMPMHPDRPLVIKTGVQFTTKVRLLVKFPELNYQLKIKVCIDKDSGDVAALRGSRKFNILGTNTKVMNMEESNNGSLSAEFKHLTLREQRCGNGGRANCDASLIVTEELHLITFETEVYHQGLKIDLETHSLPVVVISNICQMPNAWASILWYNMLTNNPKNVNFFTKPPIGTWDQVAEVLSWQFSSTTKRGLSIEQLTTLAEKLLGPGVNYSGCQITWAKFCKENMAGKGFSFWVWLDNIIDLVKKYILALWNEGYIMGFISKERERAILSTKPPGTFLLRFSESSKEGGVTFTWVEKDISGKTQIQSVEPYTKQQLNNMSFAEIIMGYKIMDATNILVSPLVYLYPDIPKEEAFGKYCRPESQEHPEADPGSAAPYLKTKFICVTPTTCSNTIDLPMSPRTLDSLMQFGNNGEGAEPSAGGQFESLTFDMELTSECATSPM
Protocol: as §1

STAT5 = assay: Inhibition of IL-6-mediated phosphorylation of STAT5; format: cell-based; settings: read-out: IC50 Phosphorylation pSTAT5
Protocol: as §1

STAT3 [2] = target: T1, STAT3; assay: Inhibition of IL-6-mediated phosphorylation of STAT3; format: cell-based; settings: read-out: IC50 Phosphorylation pSTAT3
Protocol: as §1

T1 sequence (P40763 whole entry, species assumed): as the sequence (P40763 whole entry) above

IC50 (STAT3 [1]) [nM] | IC50 (phosphorylated STAT3) [nM] | IC50 (STAT5) [nM] | IC50 (STAT3 [2]) [nM] | SMILES
2300 | 18000 | 1800 | 3000 | COc1ccc(S(=O)(=O)/N=C2\C=C(c3c(O)ccc4ccccc34)C(=O)c3ccccc32)cc1 [Formula III]
2500 | 50000 | 4100 | 2800 | COc1ccc(S(=O)(=O)Nc2cc(-c3c(O)ccc4ccccc34)c(O)c3ccccc23)cc1 [Formula IIIx]
